Where “and” joins values, the source holds several entries; their conditions need not be identical. Equal values may be shown once.

From patent publication US20200038412A1, “METHODS OF TREATING ALZHEIMER'S DISEASE USING AMINOSTEROL COMPOSITIONS” (Enterin, Inc., priority 2018, published 2020) come the findings set out here.

This test deals with patients with PD and constipation. Nature of the test: Phase 2 trial Stage 2: CNS symptoms (UPDRS, MMSE, PDHQ, BDI-II, sleep diary). In kind it is in vivo, human. The settings on record: for patients in whom hallucinations and delusions improved or disappeared during treatment: 6 patients with hallucinations (5) or delusions (1) at baseline; for UPDRS Part 1 (NMS): baseline 11.6 (6.51); for UPDRS Total: baseline 64.4 (23.72); for BDI-II: baseline 10.9 (7.12); for MMSE: baseline 28.4 (1.75). The source says: Exploratory end-points, in addition to constipation, included for example, (i) depression assessed using the Beck Depression Inventory (BDI-II) (Steer et al. 2000) and Unified Parkinson's Disease Rating Scale (UPDRS); (ii) cognition assessed using the Mini Mental State Examination (MMSE) (Palsteia et al. 2018), Unified Parkinson's Disease Rating Scale (UPDRS), and Trail Making Test (TMT); (iii) sleep and REM-behavior disorder (RBD) using a daily sleep diary, I-Button Temperature Assessment, a REM sleep behavior disorder (RBD) questionnaire (RBDQ) (Stiasny-Kolster et al. 2007), and the UPDRS; (iv) hallucinations assessed using the PD hallucinations questionnaire (PDHQ) (Papapetropoulos et al. 2008), the UPDRS, and direct questioning; (v) fatigue using the Parkinson's Disease Fatigue Scale (PFS-16) and the UPDRS; (vi) motor functions using the UPDRS; and (vii) non-motor functions using the UPDRS.
Assessments were made at baseline and at the end of the fixed dose and washout periods. Circadian system status was evaluated by continuously monitoring wrist skin temperature (Thermochron iButton DS1921H; Maxim, Dallas) following published procedures (Sarabia et al. 2008).
An exploratory analysis was done with respect to the sleep data, the body temperature data, mood, fatigue, hallucinations, cognition and other motor and non-motor symptoms of PD. Continuous measurements within a subject were compared with a paired t-test and continuous measurements between subject groups were compared with a two-group t-test. Categorical data were compared with a chi-squared test or a Fisher's exact test if the expected cell counts are too small for a chi-squared test.
CNS symptoms were evaluated at baseline and at the end of the fixed dose period and the wash-out period (Table 12). Total UPDRS score was 64.4 at baseline, 60.6 at the end of the fixed dose period and 55.7 at the end of the wash-out period (p=0.002); similarly, the motor component of the UPDRS improved from 35.3 at baseline to 33.3 at the end of fixed dose to 30.2 at the end of wash-out (p=0.006). MMSE improved from 28.4 at baseline to 28.7 during treatment and to 29.3 during wash-out (p=0.0006). […] PDHQ improved from 1.3 at baseline to 1.8 during treatment and 0.9 during wash-out (p=0.03). Hallucinations were reported by 5 patients at baseline and delusions in 1 patient. […] The frequency of arm or leg thrashing reported in the sleep diary diminished progressively from 2.2 episodes/week at baseline to 0 at maximal dose. […] Unlike stool-related indices, the improvement in many CNS symptoms persisted during wash-out.

The mark [1] stands for this setting: Stage 2, end of fixed dose, mean (SD), n = 34.
[2] abbreviates: Stage 2, end of wash-out, mean (SD).
The mark [3] stands for this setting: Stage 2, fixed dose, mean (SD), n = 34.

For `CC(C)[C@@H](CC[C@@H](C)[C@H]1CC[C@H]2[C@@H]3[C@H](O)C[C@H]4C[C@@H](NCCCNCCCCN)CC[C@]4(C)[C@H]3CC[C@]12C)OS(=O)(=O)O` (single isomer, unassigned) [squalamine (ENT-01), squalamine], the “patients in whom hallucinations and delusions improved or disappeared during treatment” value (from here on “patients”) was 5 of 6. Also, the “patients” value (listed as ENT-01) is “five”. Moreover, the “patients” value (listed as aminosterol) was “five and 5 of 6”. Moreover, the “increase of total sleep time” value (7.1 hours at baseline to 8.4 hours at 250 mg) was 18%. Under setting [1], the “UPDRS Part 1 (NMS)” value is on record as 10.6 (6.18)) and the “UPDRS Total” value was 60.6. Moreover, where the note is “Stage 2, end of fixed dose, mean (SD), n = 34, listed as Squalamine (ENT-01)”, the “UPDRS Total” value is listed as 60.6 (25.60). Further, under setting [2], the “UPDRS Part 1 (NMS)” value is listed as 9.5 (5.27) and the “UPDRS Total” value is given as 55.7. Under “Stage 2, end of wash-out, mean (SD), listed as Squalamine (ENT-01)”, the “UPDRS Total” value is recorded as 55.7 (23.69). Moreover, under setting [3], the BDI-II is 9.9 (6.45) and the MMSE is recorded as 28.7 (1.9). The PDHQ (Stage 2, wash-out, mean (SD), baseline 1.3 (2.99)) is 0.9 (2.33). Besides, under “Stage 2, wash-out, mean (SD)”, the BDI-II was 8.7 (5.19) and the MMSE was 29.3 (1.06). Further, under “at maximal dose, baseline 2.2”, the “frequency of arm or leg thrashing reported in the sleep diary” value stood at 0 episodes/week. Moreover, where the note is “baseline 2.2 episodes/week to 0 at maximal dose”, the “improvement of frequency of arm or leg thrashing” value is 100%. For the same molecule, the “improvement in depression scoring (BDI-II)” value (baseline 10.9 to wash-out 8.7) is given as 20%. Besides, the “improvement of UPDRS Part 1” value (baseline 11.6 to wash-out 9.5, listed as aminosterol) was ~20% and 18%. Further, the “improvement of total UPDRS score” value (baseline 64.4 to end of wash-out 55.7) is 13.5%. Also, the “total sleep time versus baseline” value (beyond 125 mg) was “consistently higher than baseline”. Besides, the “time patient remained free of hallucinations following cessation of dosing” value (one patient) is given as 1 month. Besides, for the setting “one patient, colonic prokinetic dose of 175 mg not reached”, the “dose at which hallucinations disappeared” value turned out to be 100 mg.
